Measured values published in patent US10906880B2, “Kind of isothiazole oxime ether-containing strobilurin derivatives and its preparation methods and application” (priority 2016, dated 2021).
Like-named read-outs stand apart in the source and are kept apart here.

Columns and labels:
TMV [1] = assay: Anti-TMV activity on tobacco, curative mode; format: in vivo, tobacco mosaic virus; settings: for inhibition at 100 µg/mL: Tobacco mosaic virus, read-out: Anti-TMV activity inhibition, Curative effect
Sclerotinia sclerotiorum = assay: Fungicide activity, mycelial growth inhibition on PDA plate; format: cell-based; settings: Sclerotinia sclerotiorum, read-out: Fungicidal activity inhibition, SS
Rhizoctonia cerealis = assay: as above; format: cell-based; settings: Ceratobasidium cereale, read-out: Fungicidal activity inhibition, RC
Botrytis cinerea = assay: as above; format: cell-based; settings: Botrytis cinerea, read-out: Fungicidal activity inhibition, BC
Pellicularia sasakii = assay: as above; format: cell-based; settings: 50 μg/mL, P. sasakii; read-out: Fungicidal activity inhibition, PS
[2] = system: Phytophthora infestans (Mont) de Bary; assay: microbe, parasite or virus in culture; format: cell-based; settings: for inhibition at 50 µg/mL: Phytophthora infestans, read-out: Fungicidal activity inhibition, PI, 50 μg/mL, P. infestans (Mont.) de Bary
TMV [3] = assay: Anti-TMV activity on tobacco, protection mode; format: in vivo, tobacco mosaic virus; settings: Tobacco mosaic virus, 100 μg/mL, read-out: Anti-TMV activity inhibition, Protection effect
Alternaria solani = assay: Fungicide activity, mycelial growth inhibition on PDA plate; format: cell-based; settings: Alternaria solani, read-out: Fungicidal activity inhibition, AS
Physalospora piricola = assay: as above; format: cell-based; settings: read-out: Fungicidal activity inhibition, PP
Cercospora arachidicola = assay: Fungicide activity, mycelial growth inhibition on PDA plate; format: cell-based; settings: Mycosphaerella arachidis, read-out: Fungicidal activity inhibition, CA
TMV [4] = assay: Anti-TMV activity on tobacco, inactivation mode; format: in vivo, tobacco mosaic virus; settings: Tobacco mosaic virus, 100 μg/mL, read-out: Anti-TMV activity inhibition, Inactivation effect

Row | SMILES | inhibition at 100 µg/mL (TMV [1]; 100 μg/mL, tobacco) [%] | inhibition at 50 µg/mL (Sclerotinia sclerotiorum; 50 μg/mL, S. sclerotiorum) [%] | inhibition at 50 µg/mL (Sclerotinia sclerotiorum) [%] | inhibition at 50 µg/mL (Rhizoctonia cerealis; 50 μg/mL, R. cerealis) [%] | inhibition at 50 µg/mL (Botrytis cinerea; 50 μg/mL, B. cinerea) [%] | inhibition at 50 µg/mL (Pellicularia sasakii) [%] | inhibition at 50 µg/mL [2] [%] | inhibition at 100 µg/mL (TMV [3]) [%] | inhibition at 50 µg/mL (Alternaria solani; 50 μg/mL, A. solani) [%] | inhibition at 50 µg/mL (Alternaria solani) [%] | inhibition at 50 µg/mL (Physalospora piricola; 50 μg/mL, P. piricola) [%] | melting point [°C] | inhibition at 50 µg/mL (Cercospora arachidicola; 50 μg/mL, C. arachidicola) [%] | inhibition at 50 µg/mL (Cercospora arachidicola) [%] | inhibition at 50 µg/mL (Rhizoctonia cerealis) [%] | inhibition at 100 µg/mL (TMV [4]) [%] | further results
1 | CO/C=C(/C(=O)OC)c1ccccc1CO/N=C(\C)c1snc(Cl)c1Cl [CL03-49] | > 30 | 80 | > 40 | 100 | 100 | 64.7 | > 40 | 35.9 ± 0.63 | 42.9 | > 30 | 78.3 | 100 to 102 | 66.7 | > 30 | – | – | –
2 | CO/C=C(/C(=O)OC)c1ccccc1CO/N=C/c1snc(Cl)c1Cl [CL03-50] | > 30 | 53.3 | > 40 | 100 | 100 | 64.7 | > 40 | > 40 | 57.1 | > 30 | 78.3 | 61 to 63 | 66.7 | > 30 | – | – | Anti-TMV activity inhibition, Curative effect (TMV [1]; 100 μg/mL, tobacco): 48.32 ± 5.88%
3 | CO/C=C(/C(=O)OC)c1ccccc1CO/N=C(\N)c1snc(Cl)c1Cl [CL04-03] | > 30 | 100 | – | 100 | 100 | 58.8 | > 40 | 35.1 ± 0.39 | 57.1 | > 30 | 87 | 105 to 107 | 100 | – | – | – | –
4 | CO/C=C(/C(=O)OC)c1ccccc1CO/N=C(\C)CC(O)c1snc(Cl)c1Cl (stereo not shown) [CL04-04-A] | 19.1 ± 2.13 | 90 | – | 100 | 100 | 52.9 | > 40 | – | 85.7 | – | 73.9 | 36 to 38 | 75 | – | – | – | –
5 | CO/C=C(/C(=O)OC)c1ccccc1CO/N=C(\C)CC(=O)c1snc(Cl)c1Cl [CL04-04-B] | 19.1 ± 2 | 76.7 | > 40 | 92.6 | 58.3 | 64.7 | > 40 | > 40 | 50 | > 30 | 60.9 | 103 to 105 | 75 | – | > 50 | – | inhibition at 50 µg/mL (Botrytis cinerea): > 45%
6 | CO/C=C(/C(=O)OC)c1ccccc1CO/N=C(C)/C=C/c1snc(Cl)c1Cl [CL04-06] | 22.4 ± 6.85 | 100 | – | 100 | 100 | 70.6 | – | > 40 | 57.1 | > 30 | – | 101 to 103 | 50 | > 30 | – | 22.2 ± 5.9 | inhibition at 50 µg/mL (Physalospora piricola): 73.9%
7 | CO/N=C(/C(=O)OC)c1ccccc1CO/N=C/c1snc(Cl)c1Cl [CL04-15B] | 27 ± 4.13 | 90 | – | 98.2 | 100 | 69.2 | – | 14.7 ± 2.73 | 100 | – | 62.1 | 88 to 90 | 91.7 | – | – | – | –
8 | CO/N=C(/C(=O)OC)c1ccccc1CO/N=C(\N)c1snc(Cl)c1Cl [CL04-15C] | 1.52 ± 0.62 | 98 | – | 89.1 | 100 | 76.9 | – | 25.1 ± 4.33 | 52.9 | > 30 | 71.2 | 104 to 106 | 75 | – | > 50 | – | –
9 | CO/N=C(/C(=O)NCC(F)F)c1ccccc1CO/N=C(\C)c1snc(Cl)c1Cl [CL04-22A] | 23.4 ± 5.58 | 84 | > 40 | 87.7 | 53.9 | 20 | – | 30.7 ± 2.06 | 37.1 | > 30 | 40.4 | 78 to 80 | 42.9 | > 30 | > 50 | > 30 | inhibition at 50 µg/mL (Botrytis cinerea): > 45%
10 | C#CCNC(=O)/C(=N/OC)c1ccccc1CO/N=C(C)/C=C/c1snc(Cl)c1Cl [CL04-32B] | – | 80 | > 40 | 100 | 47.4 | 78.4 | – | 23.4 ± 1.02 | 41 | > 30 | 64.9 | 92 to 93 | 52 | > 30 | – | – | inhibition at 50 µg/mL (Botrytis cinerea): > 45%; Fungicidal activity inhibition, PI ([2]; 50 μg/mL, P. infestans (Mont.) de Bary): 100%
11 | CO/N=C(/C(=O)N[C@H](C)CSC)c1ccccc1CO/N=C(C)/C=C/c1snc(Cl)c1Cl [CL04-32F] | – | 52.9 | > 40 | 62 | 42.9 | 21.2 | 20 | > 40 | 12.7 | – | 58 | – | 12.5 | – | > 50 | 7.71 ± 1.42 | –
12 | CNCC(=O)N[C@@H](CO)C(=O)N[C@H]1[C@H](O)[C@@H](O)[C@H](n2ccc(N)nc2=O)O[C@@H]1C(N)=O [Ningnanmycin, reference compound] | – | – | – | – | – | – | – | – | – | – | – | – | – | – | – | – | inhibition at 100 µg/mL (TMV [1]): 74.1 ± 2.04%
13 | NC(=O)c1ncn([C@@H]2O[C@H](CO)[C@@H](O)[C@H]2O)n1 [Ribavirin, reference compound] | – | – | – | – | – | – | – | – | – | – | – | – | – | – | – | 78 ± 1 | –
